Active and inactive are the calls of the source. Cut-off read from the data, not from the text of the source, for most assays here: actives have a measured EC50 and inactives only a lower limit.
Tests used:
[1] = molecular target: T1, RNA-binding protein pos-1 (Caenorhabditis elegans, UniProt G5EF15); assay: disruptors of C. elegans POS-1 RNA interaction – biochemical, fluorescence polarization, dose response (AID 1964);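 note: purified POS-1 fused to maltose binding protein made in E. coli; potency of compounds blocking POS-1 binding to fluorescent RNA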
T1 sequence (G5EF15 whole entry): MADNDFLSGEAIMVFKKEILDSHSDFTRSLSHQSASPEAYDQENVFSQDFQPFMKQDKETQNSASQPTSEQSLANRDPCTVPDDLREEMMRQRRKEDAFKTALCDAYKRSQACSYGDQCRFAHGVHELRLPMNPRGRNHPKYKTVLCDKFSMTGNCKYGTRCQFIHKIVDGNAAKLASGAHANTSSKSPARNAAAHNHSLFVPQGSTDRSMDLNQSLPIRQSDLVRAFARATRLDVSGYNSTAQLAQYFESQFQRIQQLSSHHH

[2] = molecular target: T2, Zinc finger protein mex-5 (Caenorhabditis elegans, UniProt Q9XUB2); assay: potency of MEX-5 RNA-binding blockers – biochemical, C. elegans, fluorescence polarization, dose response (AID 1960)
T2 sequence (Q9XUB2 whole entry): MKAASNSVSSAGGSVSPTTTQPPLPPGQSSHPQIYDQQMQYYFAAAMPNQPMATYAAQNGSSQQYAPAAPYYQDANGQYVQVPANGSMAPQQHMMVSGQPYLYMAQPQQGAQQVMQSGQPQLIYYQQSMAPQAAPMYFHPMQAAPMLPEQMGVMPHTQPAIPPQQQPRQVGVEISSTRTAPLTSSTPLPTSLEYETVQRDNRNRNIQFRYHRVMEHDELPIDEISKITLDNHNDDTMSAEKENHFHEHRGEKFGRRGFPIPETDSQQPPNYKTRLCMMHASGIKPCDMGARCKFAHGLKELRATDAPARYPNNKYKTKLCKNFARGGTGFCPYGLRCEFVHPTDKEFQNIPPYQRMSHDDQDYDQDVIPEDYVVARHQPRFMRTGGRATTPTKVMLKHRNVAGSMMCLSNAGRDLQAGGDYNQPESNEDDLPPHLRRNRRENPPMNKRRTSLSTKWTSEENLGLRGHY

[3] = Luminescence Cell-Based Dose Response HTS to Identify Activators of Luciferase Translation or Activity in H4 […] Cells. [Related pubchem assays: 1829 (Project Summary), 1814 (Primary HTS)]; type: functional
H4 = assay: Luminescence Cell-Based Dose Response HTS to Identify Activators of 5'UTR Stem-Loop Driven Prion Protein mRNA Translation in H4 Neuroglioblastoma Cells. [Related pubchem assays: 1829 (Project Summary), 1814 (Primary HTS)]; type: functional; conditions: Homo sapiens
[4] = Luminescence Cell-Based Dose Confirmation HTS to Identify Activators of 5'UTR Stem-Loop Driven Alpha-Synuclein mRNA Translation in H4 Neuroglioblastoma Cells. [Related pubchem assays: 1829 (Project Summary), 1814 (Primary HTS)]; type: functional
Protein RecA = molecular target: T3, Protein RecA (Mycobacterium tuberculosis, UniProt P9WHJ3); assay: Fluorescence Cell-Free Homogeneous Dose Retest to Identify Inhibitors of RecA-Intein Splicing Activity. [Related pubchem assays (depositor defined):AID2097, AID2223, AID489010, AID492950]; type: functional
T3 sequence (P9WHJ3 whole entry): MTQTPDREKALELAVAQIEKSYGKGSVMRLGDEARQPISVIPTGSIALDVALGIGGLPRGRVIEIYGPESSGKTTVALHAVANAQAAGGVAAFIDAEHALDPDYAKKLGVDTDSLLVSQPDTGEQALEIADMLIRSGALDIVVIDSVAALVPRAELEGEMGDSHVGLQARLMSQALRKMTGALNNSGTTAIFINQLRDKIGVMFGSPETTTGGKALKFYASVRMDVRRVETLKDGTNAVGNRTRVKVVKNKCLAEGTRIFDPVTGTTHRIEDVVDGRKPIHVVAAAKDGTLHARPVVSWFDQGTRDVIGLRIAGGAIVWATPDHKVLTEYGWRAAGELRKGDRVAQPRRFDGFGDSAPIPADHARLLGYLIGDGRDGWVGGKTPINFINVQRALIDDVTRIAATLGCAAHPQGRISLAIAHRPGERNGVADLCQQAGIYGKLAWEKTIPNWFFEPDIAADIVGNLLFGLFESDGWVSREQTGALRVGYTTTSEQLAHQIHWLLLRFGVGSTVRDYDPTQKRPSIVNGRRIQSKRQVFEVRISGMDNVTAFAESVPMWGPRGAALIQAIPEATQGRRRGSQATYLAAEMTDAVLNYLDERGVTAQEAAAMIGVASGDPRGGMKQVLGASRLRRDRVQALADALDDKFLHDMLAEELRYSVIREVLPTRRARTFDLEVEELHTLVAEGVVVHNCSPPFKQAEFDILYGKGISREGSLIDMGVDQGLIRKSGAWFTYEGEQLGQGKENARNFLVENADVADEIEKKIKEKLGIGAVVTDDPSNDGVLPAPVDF

[5] = molecular target: T4, Replicative DNA helicase DnaB (Mycobacterium tuberculosis, UniProt P9WMR3); assay: DnaB intein splicing inhibitors, dose response, biochemical, cell-free fluorescence (AID 449749); type: functional
T4 sequence (P9WMR3 whole entry): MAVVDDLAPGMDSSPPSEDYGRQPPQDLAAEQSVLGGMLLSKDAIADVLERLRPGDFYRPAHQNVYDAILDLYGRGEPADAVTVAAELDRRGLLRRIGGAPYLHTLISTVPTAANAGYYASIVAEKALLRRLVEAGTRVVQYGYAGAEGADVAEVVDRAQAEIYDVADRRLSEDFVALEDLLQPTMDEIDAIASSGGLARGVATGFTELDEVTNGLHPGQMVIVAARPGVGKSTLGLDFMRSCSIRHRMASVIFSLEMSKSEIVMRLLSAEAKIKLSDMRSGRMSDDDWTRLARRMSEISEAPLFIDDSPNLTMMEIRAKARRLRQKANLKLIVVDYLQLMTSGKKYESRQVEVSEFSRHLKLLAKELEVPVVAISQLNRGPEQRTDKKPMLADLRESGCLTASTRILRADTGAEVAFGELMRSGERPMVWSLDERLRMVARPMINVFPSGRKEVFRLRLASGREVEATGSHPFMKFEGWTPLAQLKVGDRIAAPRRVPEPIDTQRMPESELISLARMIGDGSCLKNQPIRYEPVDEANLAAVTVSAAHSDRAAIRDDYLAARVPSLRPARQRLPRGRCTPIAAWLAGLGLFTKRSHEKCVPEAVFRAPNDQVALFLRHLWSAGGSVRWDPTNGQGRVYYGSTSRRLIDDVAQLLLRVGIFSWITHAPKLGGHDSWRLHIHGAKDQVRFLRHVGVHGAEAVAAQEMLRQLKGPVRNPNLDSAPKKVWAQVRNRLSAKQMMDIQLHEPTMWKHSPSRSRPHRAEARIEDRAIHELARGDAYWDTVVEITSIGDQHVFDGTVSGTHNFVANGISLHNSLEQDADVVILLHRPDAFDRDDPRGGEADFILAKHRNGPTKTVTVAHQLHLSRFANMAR

[6] = molecular target: T5, Rac GTPase-activating protein 1 (Homo sapiens, UniProt Q9H0H5); assay: blockers of MgcRacGAP-driven Rac1 GTP hydrolysis – biochemical, ADP Hunter fluorescence, primary and confirmatory, confirmation (AID 624330); type: functional
T5 sequence (Q9H0H5 whole entry): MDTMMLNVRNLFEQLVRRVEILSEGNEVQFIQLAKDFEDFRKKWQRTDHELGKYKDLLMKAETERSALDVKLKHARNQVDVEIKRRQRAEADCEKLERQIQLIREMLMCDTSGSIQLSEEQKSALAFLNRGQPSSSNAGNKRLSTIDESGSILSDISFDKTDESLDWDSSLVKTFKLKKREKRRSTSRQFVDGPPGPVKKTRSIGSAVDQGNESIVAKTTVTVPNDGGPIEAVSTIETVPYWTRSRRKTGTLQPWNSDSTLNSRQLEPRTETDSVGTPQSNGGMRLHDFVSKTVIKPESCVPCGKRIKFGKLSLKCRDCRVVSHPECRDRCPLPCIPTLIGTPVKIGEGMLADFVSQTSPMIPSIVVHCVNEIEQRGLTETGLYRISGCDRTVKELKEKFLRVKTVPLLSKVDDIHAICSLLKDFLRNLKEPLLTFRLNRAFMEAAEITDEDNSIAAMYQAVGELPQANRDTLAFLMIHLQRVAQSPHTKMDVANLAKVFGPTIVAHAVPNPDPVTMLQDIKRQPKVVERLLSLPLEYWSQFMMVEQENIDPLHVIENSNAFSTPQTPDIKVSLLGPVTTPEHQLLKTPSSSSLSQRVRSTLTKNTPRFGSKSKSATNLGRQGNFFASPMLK

[7] = Luminescence Cell-Based Dose Retest to Confirm Inhibitors of Cancer Stem Cells. [Related pubchem assays (depositor defined):AID2717, AID2721]; type: functional; conditions: Homo sapiens
[8] = blockers of HIV-1 ZM109 envelope-driven cell-cell fusion – HeLa effector, CEM target cells, luciferase, cherry-pick, dose response (AID 652058); type: functional, cell-based;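 note: luciferase signal from HIV-1 Env mediated cell-cell fusion of effector and target cells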
[9] = HIV-1 AD8 envelope cell-cell fusion blockers – cherry-pick, dose response (AID 652062); type: functional, cell-based;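 note: luciferase signal from cell-cell fusion driven by HIV-1 clade B AD8 Env; potency is for inhibitors of fusion seen as a drop in luminescence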

Structure (SMILES)	EC50 [3]	EC50 (H4)	EC50 [4]	EC50 (Protein RecA)	AC50 [5]	other results
CC(C)(C)OC(=O)NCCCC1=CC2=CC(=O)C(C)(OC(=O)c3ccco3)C(=O)C2=CO1 (configuration not stated)	–	–	–	–	–	EC50 [1]: 46.9 µM (active); EC50 [2]: 46.8 µM (active)
COC(=O)C1C(=O)C=C(Nc2ccc(F)cc2F)CC1c1ccccc1 (configuration not stated)	95.6 µM (active)	17.6 µM (active)	> 120 µM (not active)	–	–	–
CCCCC(=O)NC(c1cccc([N+](=O)[O-])c1)c1c(OC(C)=O)ccc2ccccc12 (configuration not stated)	–	–	–	25.4 µM (active)	41.6 µM (active)	–
O=C(c1cc(-c2cccc(Cl)c2)on1)N1CCOCC1	26.4 µM (active)	21.1 µM (active)	4.22 µM (active)	–	–	–
Cc1ccc(-c2cc(C(=O)N3CCCc4ccccc43)no2)cc1	> 120 µM (not active)	11.8 µM (active)	52.4 µM (active)	–	–	–
COc1cccc(/C=N/NC(=O)CCn2nnc3ccccc32)c1	> 120 µM (not active)	> 120 µM (not active)	> 120 µM (not active)	–	–	–
CCCc1n[nH]c2c1C(c1ccc(O)c(OC)c1)C(C#N)=C(N)O2 (configuration not stated)	–	–	–	8.18 µM (active)	57.1 µM (active)	–
Cc1ccc2nc(O)c(CN(CCO)Cc3nnnn3CCc3ccccc3)cc2c1	–	–	–	–	–	EC50 [1]: > 300 µM (not active); EC50 [2]: > 300 µM (not active)
O=C(Nc1cccc(OC(=O)c2ccc(Br)o2)c1)c1ccccc1	–	–	–	9.2 µM (active)	0.0485 µM (inconclusive)	–
O=C(N[C@H]1CP(=O)(Oc2ccccc2)O[C@H](COCc2ccccc2)[C@H]1O)C(Cl)(Cl)Cl (some centres not stated)	–	–	–	–	–	EC50 [1]: > 300 µM (not active); EC50 [2]: > 300 µM (not active)
O=C(CCl)NCc1c(Cl)cccc1-n1cccc1	–	–	–	15.3 µM (active)	> 380 µM (inactive)	–
Cc1ccc(C(C)(C)NC(=O)C2CCC(=O)N(C3CCCCCC3)C2)cc1 (configuration not stated)	10.2 µM (active)	> 120 µM (not active)	83.3 µM (active)	–	–	–
Cc1ccc(CNC(=O)CCN2C(=O)[C@@H]3Cc4ccccc4CN3C2=O)cc1	–	–	–	> 380 µM (inactive)	373 µM (active)	–
COC(=O)CCC(=O)OC1(C)C(=O)C2=CN(CCc3ccccn3)C(c3ccc(OC)cc3)=CC2=C(Br)C1=O (configuration not stated)	–	–	–	–	–	EC50 [1]: 68.5 µM (active); EC50 [2]: 8.83 µM (active)
Cc1ccc(N2C(=O)C(Cl)=C(NCCO)C2=O)c(C)c1	–	–	–	10.8 µM (active)	155 µM (active)	–
O=[N+]([O-])/C(C(Cl)=C(Cl)Cl)=C(/Sc1ccccc1)N1CCCCC1	–	–	–	7.05 µM (active)	3.88 µM (active)	–
Cc1cc(C)c(C)c(S(=O)(=O)N2CCN(c3ccc(O)cc3)CC2)c1C	–	–	–	–	–	IC50 [6]: 85.9 µM (active); AC50 [7]: 8.83 µM (active)
CC1CC(C)CN(C(=O)c2ccc3c(c2)N(Cc2ccccc2)CCS3)C1 (configuration not stated)	–	–	–	23.6 µM (active)	5.01 µM (active)	–
O=C(CN1C(=O)S/C(=C\C=C\c2ccccc2)C1=O)Nc1cccc(O)c1	40.1 µM (active)	49.2 µM (active)	16.4 µM (active)	–	–	–
CC1(S(=O)(=O)O)CC(=O)c2ccccc2C1=O (configuration not stated)	–	–	–	3.03 µM (active)	5.26 µM (active)	–
CN(C)C(=O)C[C@H]1C[C@@H]2c3cc(NS(=O)(=O)c4ccc(F)cc4)ccc3O[C@@H]2[C@@H](CO)O1	–	–	–	–	–	AC50 [8]: 54.1 µM (active)
Cc1cccc2cc(C#N)c(SCc3nnc(-c4ccccc4[N+](=O)[O-])o3)nc12	75.4 µM (active)	18.4 µM (active)	> 120 µM (not active)	–	–	–
O=C(c1ccccc1)N1CCC(c2nc(-c3ccc(S(=O)(=O)NCC4CCCO4)cc3)no2)CC1 (configuration not stated)	–	–	–	–	–	AC50 [9]: 11.3 µM (active); AC50 [8]: 24.4 µM (active)
N=c1n(CCN2CCOCC2)c2ccccc2n1CC(=O)c1ccc(Cl)c(Cl)c1	> 120 µM (not active)	41.8 µM (inconclusive)	> 120 µM (not active)	–	–	–
Cc1ccc(N2C(=O)NC(=O)/C(=C\c3cc(C)n(-c4cc(C(=O)O)cc(C(=O)O)c4)c3C)C2=O)cc1	–	–	–	–	–	EC50 [1]: > 300 µM (not active); EC50 [2]: > 300 µM (not active)

— ChEMBL document CHEMBL1201862, “PubChem BioAssay data set” (2004)
